Measured values from patent publication US8492425B2, “5-methyl-1-(naphthalen-2-yl)-1H-pyrazoles useful as sigma receptor inhibitors” (Laboratories Del Dr. Esteve, S.A., priority 2008, dated 2013).
Like-named read-outs stand apart in the source and are kept apart here.

Tests used:
[1] = molecular target: T1, sigma-1 receptor (Cavia porcellus, UniProt Q60492); assay: Sigma-1 receptor binding assay, [3H]-(+)-pentazocine displacement in guinea pig brain membranes; conditions: for IC50: radioligand [3H]-(+)-pentazocine 3.0 nM, 150 min at 37° C., read-out: IC50 (inhibitory concentration); for Ki: read-out: Ki (binding affinity)
T1 construct: from tissue; host or cells: guinea pig brain membranes
T1 sequence (Q60492 whole entry): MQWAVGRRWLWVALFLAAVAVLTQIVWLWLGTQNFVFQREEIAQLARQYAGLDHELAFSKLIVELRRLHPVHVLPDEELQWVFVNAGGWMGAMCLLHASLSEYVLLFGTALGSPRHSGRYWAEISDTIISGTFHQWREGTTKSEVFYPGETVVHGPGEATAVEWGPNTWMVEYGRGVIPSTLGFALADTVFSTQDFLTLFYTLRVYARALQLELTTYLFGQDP

Row | Structure (SMILES) | IC50 ([1]; guinea pig brain membranes) | other results
1 | Cc1cc(OCCNCCO)nn1-c1ccc2ccccc2c1 [Compound 5, 2-(2-(5-methyl-1-(naphthalen-2-yl)-1H-pyrazol-3-yloxy)ethylamino)ethanol chlorhydrate] |  | Ki ([1]; guinea pig brain membranes, [3H]-(+)-pentazocine 3.0 nM, calculated from IC50 by the Cheng-Prussof equation): 102 nM
2 | Cc1cc(OCCN2CCOCC2)nn1-c1ccc2c(O)cccc2c1 [Compound 3, 4-{2-[1-(5-hydroxynaphthalen-2-yl)-5-methyl-1H-pyrazol-3-yloxy]ethyl}morpholine] |  | Ki [1]: 329 nM
3 | Cc1cc(OCCN2CCOCC2)nn1-c1ccc2ccc(O)cc2c1 (hydrate or solvate) [Compound 4, 4-{2-[1-(7-hydroxynaphthalen-2-yl)-5-methyl-1H-pyrazol-3-yloxy]ethyl}morpholine chlorhydrate] |  | melting point: 103 to 107 °C
4 | Cc1cc(OCCN2CCOCC2)nn1-c1ccc2c(c1)C=CC(O)C2O (stereo not shown) [Compound 1, 6-(5-methyl-3-(2-morpholinoethoxy)-1H-pyrazol-1-yl)-1,2-dihydronaphthalene-1,2-diol] | > 1000 nM | 
5 | Cc1cc(OCCN2CCOCC2)nn1-c1ccc2cc(O)ccc2c1 [Compound 2, 4-{2-[1-(6-hydroxynaphthalen-2-yl)-5-methyl-1H-pyrazol-3-yloxy]ethyl}morpholine chlorhydrate] | > 1000 nM | 

Second part, led by results:

Row | IC50 ([1]; guinea pig brain membranes) | Structure (SMILES) | other results
6 | > 1000 nM | Cc1cc(OCCN2CCOCC2)nn1-c1ccc2ccc(O)cc2c1 [Compound 4, 4-{2-[1-(7-hydroxynaphthalen-2-yl)-5-methyl-1H-pyrazol-3-yloxy]ethyl}morpholine chlorhydrate] | 
7 | > 1000 nM | Cc1cc(OCC[N+]2([O-])CCOCC2)nn1-c1ccc2ccccc2c1 [Compound 6, 4-(2-(5-methyl-1-(naphthalen-2-yl)-1H-pyrazol-3-yloxy)ethyl)morpholine 4-oxide] | 
